Patent US20220184071A1, “GEPOTIDACIN FOR USE IN THE TREATMENT OF BACTERIAL URINARY TRACT INFECTIONS” (GlaxoSmithKline Intellectual Property Development Limited, priority 2019, published 2022)
≈ marks a conversion by molar mass, not a printed value. Where two headings read alike, the source gives them in different places.

Legend:
E. coli [1] = assay: Neutropenic mouse thigh infection model PK/PD; format: in vivo
Method: PK and PD studies using gepotidacin were conducted in murine (male CD-1 mice) thigh and kidney infections. The administered doses ranged from 1 to 200 mg/kg SC every 6 hours starting 1h post infection. Infected tissues were evaluated for bacterial burden at 24 h post infection (baseline controls at 1 h post infection).
Efficacy was determined against E. coli ALL, 997577, ATCC25922, IR5 and NCTC13441 (MICs of 1 to 4 μg/mL) in thigh-infected neutropenic (I−) mice and against E. coli ALL in kidney-infected immunocompetent (I+) and I− mice. The PopPK model was used to determine GEP exposures associated with efficacy. PK-PD analyses were conducted using Phoenix WinNonLin 6.3 (Pharsight). The change in login colony forming units (CFU) from baseline were correlated with free drug (f) AUC:MIC using an inhibitory model from the Phoenix library, and model parameter values for each isolate were used to calculate the plasma fAUC:MIC associated with stasis, 1- or 2-login reductions in CFU.
PD studies were conducted using thigh and/or kidney infection models in neutropenic or competent mice (N=5/group). Mice were infected with a bacterial suspension in log phase: 100 μL in the left thigh muscle or 50 μL in each of both kidneys (100 μl total). Final inocula across all isolates were 6.0 to 7.0 login CFU/mouse. Dose-ranging studies were conducted with 5 isolates (see Table 1). Starting 1 hr after infection, GEP was given SC (0.2 mL/mouse) at discrete doses of 1-200 mg/kg every 6 hours (q6) for a 24-hour period (4 doses in total). Mice were euthanized 24 hr after start of therapy (6 hr after the last dose), and infected thighs or kidneys were processed to determine viable bacterial counts (CFU). Baseline CFU were obtained from untreated mice at 1 hr post infection and growth control CFU from saline-treated mice at 24 hr.
NCA analyses were conducted with the simulated data.
PK-PD analysis was conducted using Phoenix WinNonLin 6.3 (Pharsight): • Log10 colony forming units (CFU) from each group were correlated with PK-PD parameters using several inhibitory models from the Phoenix library. • Model parameter values for each isolate were used to calculate the PK-PD parameter value associated with stasis, 1-log or 2-log reductions from baseline 1 h controls.

E. coli [2] = assay: Phase IIa baseline uropathogen susceptibility testing (CLSI broth microdilution); format: cell-based, Escherichia coli; settings: Escherichia coli, read-out: GEP MIC
Method: This phase IIa single center study evaluated the safety, tolerability, pharmacokinetics, and efficacy of oral gepotidacin 1500 mg BID for 5 days in female subjects with acute cystitis. Clean catch mid-stream urine specimens were obtained for quantitative culture by standard methods. Urine samples were taken from all participants pre-treatment (baseline) and at all post-baseline visits. All urine samples were sent to a central laboratory (PPD Global Clinical Laboratories, Highland Heights, Ky., USA) for Gram stain, quantitative culture, pathogen identification and susceptibility testing. See FIG. 1 for participant disposition and study outline.
Susceptibility testing by CLSI broth microdilution and gradient diffusion (fosfomycin only) was conducted (CLSI, 2015, Methods for dilution antimicrobial susceptibility tests for bacteria that grow aerobically; approved standard-tenth edition; and CLSI, 2018. Performance Standards for Antimicrobial Susceptibility Testing; Twenty-seventh Informational Supplement M100-S28). Inclusion in the microbiological intent-to-treat population (micro-ITT), required growth of a qualifying baseline uropathogen (≥10^5 CFU/mL). See FIG. 2 for the baseline algorithm.

[3] = system: coagulase-negative staphylococci; assay: MIC by CLSI broth microdilution, Example 5 Method 1; format: cell-based
Method: (§1) Gepotidacin was tested against 101 coagulase-negative staphylococci and 105 viridans streptococci in serial two-fold dilutions and the minimum inhibitory concentration (MIC) was determined as the lowest concentration of the compound that inhibited visible growth. All of the clinical isolates were collected in 2009-2012 from patient infections from North America, Europe, Latin America and Asia-Pacific medical centers and were mainly obtained from patients with documented nosocomial and community-acquired respiratory tract infections, bloodstream infections and skin and skin structure infections. Ceftriaxone, meropenem, penicillin, levofloxacin, moxifloxacin and linezolid were included as comparators when testing the viridans streptococci isolates. Oxacillin, levofloxacin, moxifloxacin and linezolid, were included as comparators when testing the coagulase-negative staphylococci isolates. MICs were determined by broth microdilution according to CLSI methods.

viridans streptococci = assay: as above; format: cell-based; settings: 105 isolates
Method: as §1

A. baumannii = assay: MIC by CLSI agar dilution, Example 1 Method 2; format: cell-based, Acinetobacter baumannii; settings: n = 60
Method: Antimicrobial activity was determined in a second study by […] using the CLSI recommended procedure in serial two-fold dilutions and the minimum inhibitory concentration (MIC) was determined as the lowest concentration of the compound that inhibited visible growth.
MICs were determined according to CLSI agar dilution guidelines.

[4] = 5 E. coli isolates, listed as Gepotidacin

## O=c1ccc2ncc(=O)n3c2n1C[C@H]3CN1CCC(NCc2cc3c(cn2)OCCC3)CC1 [gepotidacin, (2R)-2-({4-[(3,4-dihydro-2H-pyrano[2,3-c]pyridin-6-ylmethyl)amino]-1-piperidinyl}methyl)-1,2-dihydro-3H,8H-2a,5,8a-triazaacenaphthylene-3,8-dione]
E. coli [1]; 5 E. coli isolates
  Median daily plasma fAUC/MIC for 1-log Drop: 16
  Median daily plasma fAUC/MIC for 2-log Drop: 25
  Median daily plasma fAUC/MIC for stasis: 11
  range of plasma fAUC:MIC ratios for 1-log10 reduction in CFU: 4-25
  range of plasma fAUC:MIC ratios for 2-log10 reduction in CFU: 7-40
  range of plasma fAUC:MIC ratios for stasis: 3-17
E. coli [1]; [4]
  Median daily plasma fAUC/MIC for 1-log Drop: 16.0
  Median daily plasma fAUC/MIC for 2-log Drop: 25.4
  Median daily plasma fAUC/MIC for stasis: 10.6
E. coli [1]; 5 strains
  Daily fAUC/MIC for 1-log Drop, Mean ± SD: 14.6 ± 9.0
  Daily fAUC/MIC for 2-log Drop, Mean ± SD: 22.9 ± 12.8
  Daily fAUC/MIC for Stasis, Mean ± SD: 9.9 ± 6.8
E. coli [1]; Strain 997577
  Daily fAUC/MIC for 1-log Drop: 16.0
  Daily fAUC/MIC for 2-log Drop: 25.4
  Daily fAUC/MIC for Stasis: 10.6
E. coli [1]; Strain ALL, Neutropenic Thigh
  Daily fAUC/MIC for 1-log Drop: 6.5
  Daily fAUC/MIC for 2-log Drop: 13.8
  Daily fAUC/MIC for Stasis: 3.0
E. coli [1]; Strain ATCC25922
  Daily fAUC/MIC for 1-log Drop: 21.5
  Daily fAUC/MIC for 2-log Drop: 27.6
  Daily fAUC/MIC for Stasis: 16.8
E. coli [1]; Strain IR5
  Daily fAUC/MIC for 1-log Drop: 4.3
  Daily fAUC/MIC for 2-log Drop: 7.2
  Daily fAUC/MIC for Stasis: 2.8
E. coli [1]; Strain NCTC13441
  Daily fAUC/MIC for 1-log Drop: 24.9
  Daily fAUC/MIC for 2-log Drop: 40.3
  Daily fAUC/MIC for Stasis: 16.2
E. coli [1]; stasis to 2-log10 reduction
  Median plasma fAUC:MIC targets ranged: 11 to 25
E. coli [2]; Participant 2
  MIC: 2 mg/L (≈ 4.46 µM)
E. coli [2]; Participant 3
  MIC: 0.5 mg/L (≈ 1.11 µM)
E. coli [2]; Participant 4
  MIC: 2 mg/L (≈ 4.46 µM)
E. coli [2]; Participant 5, MDR and fluoroquinolone-resistant
  MIC: 1 mg/L (≈ 2.23 µM)
E. coli [2]; Participant 6, MDR
  MIC: 2 mg/L (≈ 4.46 µM)
[3]; 101 isolates
  MIC90: 0.5 mg/L (≈ 1.11 µM)
[3]; coagulase-negative staphylococci and viridans streptococci, except meropenem and moxifloxacin against viridans group streptococci
  MIC90 fold lower than the comparators tested: 2 to 64 fold
Viridans streptococci
  MIC90: 0.5 mg/L (≈ 1.11 µM)
A. baumannii; Acinetobacter baumannii
  MIC50: 32 mg/L (≈ 71.3 µM)
  MIC90: 64 mg/L (≈ 143 µM)
A. baumannii
  Number of Isolates at Gepotidacin MIC 8 mg/L: 7
  Number of Isolates at Gepotidacin MIC ≥16 mg/L: 53
